Measurements reported in patent US5663186A, “Treatment of atherosclerosis with angiotensin II receptor blocking imidazoles” (Merck & Co., Inc., priority 1995, dated 1997).

Test system: patients with mild to moderate hypertension
Test: Clinical study: LDL cholesterol
Format: in vivo
Method: The total, HDL, LDL and VLDL cholesterol levels were measured using the procedures described below:
The low density lipoprotein cholesterol is computed by subtracting from the cholesterol value determined above one-fifth of the triglycerides and the HDL cholesterol value determined above. This LDL computation is valid only if the triglyceride level is less than 400 mg/dL.

## CCCCc1nc(Cl)c(CO)n1Cc1ccc(-c2ccccc2-c2nnn[nH]2)cc1.[K] [Losartan, 2-n-butyl-4-chloro-1-[(2'-(tetrazol-5-yl)-1,1'-biphenyl-4-yl)-methyl]-1H-imidazole-5-methanol potassium salt]
LOS 50, week 12, N 102
  LDL CHOLESTEROL, TREATMENT MEAN: 123.5 mg/dL
LOS 50, week 12, N 102, change from baseline 127.7
  LDL CHOLESTEROL, CHANGE MEAN: -4.2 mg/dL
LOS 50/100, week 12, N 95
  LDL CHOLESTEROL, TREATMENT MEAN: 117.9 mg/dL
LOS 50/100, week 12, N 95, change from baseline 126.3
  LDL CHOLESTEROL, CHANGE MEAN: -8.4 mg/dL
